Laboratory results: US20250230193A1, “CYCLIC COMPOUND HAVING SELECTIVE KRAS INHIBITORY EFFECT ON HRAS AND NRAS” (CHUGAI SEIYAKU KABUSHIKI KAISHA, priority 2022, published 2025)
Where a SMILES comes first, the peptide text is derived from it. Bridges are numbered along the chain shown (N, C = ends). [ ]: non-standard residue; d: D form. hPhe(3-Cl-4-CF3) = N[C@@H](CCc1ccc(C(F)(F)F)c(Cl)c1)C(=O)O; NPrPhe(4-CF3) = CCCN[C@@H](Cc1ccc(C(F)(F)F)cc1)C(=O)O; NMeGly(cPent) = CN[C@H](C(=O)O)C1CCCC1; Hyp = O=C(O)[C@@H]1C[C@@H](O)CN1; NMeL = CN[C@@H](CC(C)C)C(=O)O; Ac5c = NC1(C(=O)O)CCCC1; Sar = CNCC(=O)O

How the values were obtained:
[1] = target: GDP-bound NRAS wild-type protein (Homo sapiens, UniProt P01111); experiment: Binding to NRAS by surface plasmon resonance (SPR), Single Cycle Kinetics; conditions: SPR; for NRAS/KRAS (ratio of KD value for NRAS to KD value for KRAS) / NRAS/KRAS (ratio of KD value with respect to NRAS to KD value with respect to KRAS): GDP-bound NRAS wild-type vs GDP-bound KRAS wild-type
[2] = target: GDP-bound HRAS wild-type protein (Homo sapiens, UniProt P01112); experiment: Binding to HRAS by surface plasmon resonance (SPR), Single Cycle Kinetics; conditions: SPR; for HRAS/KRAS (ratio of KD value for HRAS to KD value for KRAS) / HRAS/KRAS (ratio of KD value with respect to HRAS to KD value with respect to KRAS): GDP-bound HRAS wild-type vs GDP-bound KRAS wild-type
Sequence of GDP-bound HRAS wild-type protein (P01112 whole entry): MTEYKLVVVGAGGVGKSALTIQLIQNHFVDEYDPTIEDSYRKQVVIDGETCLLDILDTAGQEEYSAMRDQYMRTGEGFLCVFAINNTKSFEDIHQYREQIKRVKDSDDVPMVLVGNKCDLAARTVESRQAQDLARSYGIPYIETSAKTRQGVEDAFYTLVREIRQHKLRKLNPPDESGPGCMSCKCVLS

Sequence of GDP-bound NRAS wild-type protein (P01111 whole entry): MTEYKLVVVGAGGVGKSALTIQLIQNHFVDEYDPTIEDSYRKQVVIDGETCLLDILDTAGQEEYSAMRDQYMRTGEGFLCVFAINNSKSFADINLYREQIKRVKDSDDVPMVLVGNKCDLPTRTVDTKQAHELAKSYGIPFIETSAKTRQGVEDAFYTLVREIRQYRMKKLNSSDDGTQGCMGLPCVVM

## CCO[C@@H]1C[C@H]2C(=O)NC3(CCC3)C(=O)N(C)[C@@H](C3CCCC3)C(=O)N(C)[C@H](C(=O)N(C)C)CC(=O)N(C)[C@@H](C)C(=O)N[C@@H]([C@H](C)CC)C(=O)N(C)CC(=O)N(C)[C@H]3CCCCCN(C3=O)[C@@H](Cc3ccc(C(F)(F)F)cc3)C(=O)N(C)CC(=O)N[C@@H](CCc3cc(F)c(C(F)(F)F)c(F)c3)C(=O)N2C1 [PP0729]
[1]; KD ratio NRAS/KRAS
  NRAS/KRAS (ratio of KD value with respect to GDP-bound NRAS wild-type protein to KD value with respect to KRAS): B (a compound having 3 or more and less than 10 is denoted as B)
[2]; KD ratio HRAS/KRAS
  HRAS/KRAS (ratio of KD value with respect to GDP-bound HRAS wild-type protein to KD value with respect to KRAS): B (a compound having 3 or more and less than 10 is denoted as B)

## CCCN(C)C(=O)[C@@H]1CC(=O)N(C)[C@@H](CC(F)F)C(=O)N[C@@H]([C@@H](C)CC)C(=O)N(C)CC(=O)N(C)[C@H]2C/C=C\CCN(C2=O)[C@@H](Cc2ccc(C(F)(F)F)cc2)C(=O)N(C)CC(=O)N[C@@H](CCc2cc(F)c(C(F)(F)F)c(F)c2)C(=O)N2C[C@H](OCC)C[C@H]2C(=O)NC2(CC(F)(F)C2)C(=O)N(C)[C@@H](C2CCCC2)C(=O)N1C [PP1733]
[1]; KD ratio
  NRAS/KRAS (ratio of KD value for NRAS to KD value for KRAS): A (a compound having 10 or more and less than 20 is denoted as A)
[2]; KD ratio
  HRAS/KRAS (ratio of KD value for HRAS to KD value for KRAS): A (a compound having 10 or more and less than 20 is denoted as A)

## CCO[C@@H]1C[C@H]2C(=O)NC3(CCC3)C(=O)N(C)[C@@H](C3CCCC3)C(=O)N(C)[C@H](C(=O)N(C)C)CC(=O)N(C)[C@@H](Cc3ccccc3C#N)C(=O)N[C@@H]([C@@H](C)CC)C(=O)N(C)CC(=O)N(C)[C@H]3CCCCCN(C3=O)[C@@H](Cc3ccc(C(F)(F)F)cc3)C(=O)N(C)CC(=O)N[C@@H](CCc3cc(F)c(C(F)(F)F)c(F)c3)C(=O)N2C1 [PP1171]
[1]; KD ratio
  NRAS/KRAS (ratio of KD value with respect to NRAS to KD value with respect to KRAS): B (a compound having 3 or more and less than 10 is denoted as B)
[2]; KD ratio
  HRAS/KRAS (ratio of KD value with respect to HRAS to KD value with respect to KRAS): B (a compound having 3 or more and less than 10 is denoted as B)

## CCO[C@@H]1C[C@H]2C(=O)NC3(CCC3)C(=O)N(C)[C@@H](C3CCCC3)C(=O)N(C)[C@H](C)CC(=O)N(C)[C@@H](CC(C)C)C(=O)N[C@@H]([C@@H](C)CC)C(=O)N(C)CC(=O)N(C)[C@H]3C/C=C\CCN(C3=O)[C@@H](Cc3ccc(C(F)(F)F)cc3)C(=O)N(C)CC(=O)N[C@@H](CCc3cc(F)c(C(F)(F)F)c(F)c3)C(=O)N2C1 [PP1100]
[1]; KD ratio
  NRAS/KRAS (ratio of KD value with respect to NRAS to KD value with respect to KRAS): B (a compound having 3 or more and less than 10 is denoted as B)
[2]; KD ratio
  HRAS/KRAS (ratio of KD value with respect to HRAS to KD value with respect to KRAS): B (a compound having 3 or more and less than 10 is denoted as B)

## CCO[C@@H]1C[C@H]2C(=O)NC3(CCC3)C(=O)N(C)[C@@H](C(CC)CC)C(=O)N(C)[C@H](CC)CC(=O)N(C)[C@@H](CC3CC3)C(=O)N[C@@H]([C@@H](C)CC)C(=O)N(C)CC(=O)N(C)[C@H]3C/C=C\CCN(C3=O)[C@@H](Cc3ccc(C(F)(F)F)cc3)C(=O)N(C)CC(=O)N[C@@H](CCc3cc(F)c(C(F)(F)F)c(F)c3)C(=O)N2C1 [PP1630]
[1]; KD ratio
  NRAS/KRAS (ratio of KD value for NRAS to KD value for KRAS): A (a compound having 10 or more and less than 20 is denoted as A)
[2]; KD ratio
  HRAS/KRAS (ratio of KD value for HRAS to KD value for KRAS): A (a compound having 10 or more and less than 20 is denoted as A)

## CCCOC[C@H]1C(=O)N[C@@H]([C@@H](C)CC)C(=O)N(C)CC(=O)N(C)[C@H]2C/C=C\CCN(C2=O)[C@@H](CC2CCC(F)(F)CC2)C(=O)N(C)CC(=O)N[C@@H](CCc2ccc(C(F)(F)F)c(Cl)c2)C(=O)N2C[C@H](OCC)C[C@H]2C(=O)NC2(CC(C)(C)C2)C(=O)N(C)[C@@H](C(CC)CC)C(=O)N(C)[C@H](C(=O)N(C)C)CC(=O)N1C [PP2484]
[1]
  NRAS/KRAS (ratio of KD value with respect to NRAS to KD value with respect to KRAS): A (a compound having 10 or more and less than 20 is denoted as A)
[2]
  HRAS/KRAS (ratio of KD value with respect to HRAS to KD value with respect to KRAS): A (a compound having 10 or more and less than 20 is denoted as A)

## CCCN1C(=O)CN(C)C(=O)CN(C)C(=O)[C@H]([C@@H](C)CC)NC(=O)[C@H](CC(C)C)N(C)C(=O)C[C@@H](C(=O)N(C)C)NC(=O)[C@H](C2CCCC2)N(C)C(=O)C2(CCCC2)NC(=O)[C@@H]2C[C@@H](OCC)CN2C(=O)[C@H](CCc2ccc(C(F)(F)F)c(Cl)c2)NC(=O)CN(C)C(=O)[C@@H]1Cc1ccc(C(F)(F)F)cc1 [PP0359] ([NMeL]I[Sar][Sar][NPrPhe(4-CF3)][Sar][hPhe(3-Cl-4-CF3)][Hyp](Et)[Ac5c][NMeGly(cPent)]D-NMe2; lactam N-11)
[1]; KD ratio NRAS/KRAS
  NRAS/KRAS (ratio of KD for GDP-bound NRAS wild-type to KD for KRAS): B (a compound having 3 or more and less than 10 is denoted as B)
[2]; KD ratio HRAS/KRAS
  HRAS/KRAS (ratio of KD for GDP-bound HRAS wild-type to KD for KRAS): B (a compound having 3 or more and less than 10 is denoted as B)
